Holding throughout (format): in vivo
Common to all, as to settings: wettable powder applied 3 days after transplanting, judged after 25 days

Data set [1] concerns Cyperus serotinus. Kind of data set: Test Example 1: herbicidal effects, paddy-field pot test. As for the experimental part: (§1) A paddy soil was filled in 1/10,000 are pot, and seeds of barnyardgrass (Echinochloa oryzicola Vasing.), Scirpus joncoides and annual broad-leaved weeds (Lindernia spp., Rotala indica) which are awaken from dormancy were mixed at the surface layer of 1 cm. Also, tuber of Cyperus serotinus which is germinated was planted, and further seedlings of paddy-field rice at 2.2-leaf stage were transplanted, and they were grown under the flooded condition in a greenhouse. After 3 days from transplanting, a predetermined chemical dosage of the wettable powder prepared in accordance with Preparation example 1 was diluted in water, and the solution was applied to the pot and herbicidal effects and crop injury against transplanted paddy-field rice were judged after 25 days from the treatment. Also, 3-(2-allylphenoxy)-6-chloro-4-methoxypyridazine described in Chemical Pharmaceutical Bulletin, 1972, vol. 20, No. 10, pp. 2191-2203 was used as Comparative compound. Incidentally, herbicidal effects and crop injury against transplanted paddy-field rice were judged by the following judgment standard, and “-” in the table means no test was carried out.
(§2) Judgment Standard • 0: Growth inhibition rate; 0 to 10% • 1: Growth inhibition rate; 11 to 30% • 2: Growth inhibition rate; 31 to 50% • 3: Growth inhibition rate; 51 to 70% • 4: Growth inhibition rate; 71 to 90% • 5: Growth inhibition rate; 91 to 100%.

Data set [2] concerns Scirpus joncoides. The description is as above. As for the experimental part: as §1, §2
For data set [3], the system named is annual broad-leaved weeds (Lindernia spp., Rotala indica). The description is as above. As for the experimental part: as §1, §2
The subject of data set [4] is barnyardgrass (Echinochloa oryzicola Vasing.). The description is as above. The protocol:
as §1, §2

The subject of data set [5] is transplanted paddy-field rice. Kind of data set: Test Example 1: crop injury against transplanted paddy-field rice. As for the experimental part: as §1, §2

For `C=CCc1ccccc1Oc1nnc(Cl)cc1OC` [Comparative compound, 3-(2-allylphenoxy)-6-chloro-4-methoxypyridazine, reference compound], in data set [1] (chemical dosage 25 g/a), the “Herbicidal effects Cyperus serotinus” value is reported as 0 (Growth inhibition rate; 0 to 10%). Besides, in data set [2] (chemical dosage 25 g/a), the “Herbicidal effects Scirpus joncoides” value was 0 (Growth inhibition rate; 0 to 10%). Also, in data set [3] (chemical dosage 25 g/a), the “Herbicidal effects Broad leaf” value is reported as 1 (Growth inhibition rate; 11 to 30%). Besides, the “Herbicidal effects Barnyard grass” value in data set [4] (chemical dosage 25 g/a) is listed as 0 (Growth inhibition rate; 0 to 10%). Further, the “Crop injury against transplanted rice” value in data set [5] (chemical dosage 25 g/a) was 0 (Growth inhibition rate; 0 to 10%).
For the compound `Oc1cc(Cl)nnc1Oc1cccc2c1C1CC1C2` (stereo not shown) [Example 14], the “Herbicidal effects Cyperus serotinus” value in data set [1] (chemical dosage 10 g/a) is 5 (Growth inhibition rate; 91 to 100%). In data set [2] (chemical dosage 10 g/a), the “Herbicidal effects Scirpus joncoides” value is reported as 4 (Growth inhibition rate; 71 to 90%). Moreover, in data set [3] (chemical dosage 10 g/a), the “Herbicidal effects Broad leaf” value is reported as 5 (Growth inhibition rate; 91 to 100%). In addition, the “Herbicidal effects Barnyard grass” value in data set [4] (chemical dosage 10 g/a) was 0 (Growth inhibition rate; 0 to 10%). Moreover, in data set [5] (chemical dosage 10 g/a), the “Crop injury against transplanted rice” value was 0 (Growth inhibition rate; 0 to 10%).
As to `CC(C)c1cccc(Cl)c1Oc1nnc(Cl)cc1O` [Example 18], the “Herbicidal effects Cyperus serotinus” value in data set [1] (chemical dosage 12.5 g/a) and in data set [1] (chemical dosage 25 g/a) was 5 (Growth inhibition rate; 91 to 100%) in each case. Moreover, the “Herbicidal effects Scirpus joncoides” value is 3 (Growth inhibition rate; 51 to 70%) in data set [2] (chemical dosage 12.5 g/a) and 4 (Growth inhibition rate; 71 to 90%) in data set [2] (chemical dosage 25 g/a). Further, the “Herbicidal effects Broad leaf” value in data set [3] (chemical dosage 12.5 g/a) and in data set [3] (chemical dosage 25 g/a) was 5 (Growth inhibition rate; 91 to 100%) in each case. Besides, the “Herbicidal effects Barnyard grass” value in data set [4] (chemical dosage 12.5 g/a) is on record as 0 (Growth inhibition rate; 0 to 10%); in data set [4] (chemical dosage 25 g/a), 1 (Growth inhibition rate; 11 to 30%). Further, the “Crop injury against transplanted rice” value is 1 (Growth inhibition rate; 11 to 30%) in data set [5] (chemical dosage 12.5 g/a) and 2 (Growth inhibition rate; 31 to 50%) in data set [5] (chemical dosage 25 g/a).
Regarding `CC(C)c1cccc(Br)c1Oc1nnc(Cl)cc1O` [Example 19], the “Herbicidal effects Cyperus serotinus” value in data set [1] (chemical dosage 12.5 g/a) and in data set [1] (chemical dosage 25 g/a) was 5 (Growth inhibition rate; 91 to 100%) each time. Besides, the “Herbicidal effects Scirpus joncoides” value in data set [2] (chemical dosage 12.5 g/a) and in data set [2] (chemical dosage 25 g/a) was 4 (Growth inhibition rate; 71 to 90%) in each case. Also, the “Herbicidal effects Broad leaf” value in data set [3] (chemical dosage 12.5 g/a) and in data set [3] (chemical dosage 25 g/a) was 5 (Growth inhibition rate; 91 to 100%) in each case. Besides, the “Herbicidal effects Barnyard grass” value in data set [4] (chemical dosage 12.5 g/a) was 0 (Growth inhibition rate; 0 to 10%); in data set [4] (chemical dosage 25 g/a), 1 (Growth inhibition rate; 11 to 30%). For the same compound, the “Crop injury against transplanted rice” value in data set [5] (chemical dosage 12.5 g/a) and in data set [5] (chemical dosage 25 g/a) was 1 (Growth inhibition rate; 11 to 30%) throughout.
For the compound `Cc1cccc(C)c1Oc1nnc(Cl)cc1O` [Example 21], in data set [1] (chemical dosage 10 g/a), the “Herbicidal effects Cyperus serotinus” value was 5 (Growth inhibition rate; 91 to 100%). In addition, the “Herbicidal effects Scirpus joncoides” value in data set [2] (chemical dosage 10 g/a) is listed as 5 (Growth inhibition rate; 91 to 100%). In data set [3] (chemical dosage 10 g/a), the “Herbicidal effects Broad leaf” value is recorded as 5 (Growth inhibition rate; 91 to 100%). Besides, the “Herbicidal effects Barnyard grass” value in data set [4] (chemical dosage 10 g/a) was 2 (Growth inhibition rate; 31 to 50%). The “Crop injury against transplanted rice” value in data set [5] (chemical dosage 10 g/a) was 0 (Growth inhibition rate; 0 to 10%).
Turning to `Cc1cccc(C(C)(C)C)c1Oc1nnc(Cl)cc1O` [Example 22], the “Herbicidal effects Cyperus serotinus” value in data set [1] (chemical dosage 12.5 g/a) was 3 (Growth inhibition rate; 51 to 70%); in data set [1] (chemical dosage 25 g/a), 4 (Growth inhibition rate; 71 to 90%). For the same compound, the “Herbicidal effects Scirpus joncoides” value in data set [2] (chemical dosage 12.5 g/a) is recorded as 2 (Growth inhibition rate; 31 to 50%); in data set [2] (chemical dosage 25 g/a) it was 4 (Growth inhibition rate; 71 to 90%). The “Herbicidal effects Broad leaf” value in data set [3] (chemical dosage 12.5 g/a) and in data set [3] (chemical dosage 25 g/a) was 5 (Growth inhibition rate; 91 to 100%) each time. Moreover, the figures for the “Herbicidal effects Barnyard grass” value in data set [4] (chemical dosage 12.5 g/a) and in data set [4] (chemical dosage 25 g/a) were 1 (Growth inhibition rate; 11 to 30%) and 2 (Growth inhibition rate; 31 to 50%), respectively. In addition, the figures for the “Crop injury against transplanted rice” value in data set [5] (chemical dosage 12.5 g/a) and in data set [5] (chemical dosage 25 g/a) were 1 (Growth inhibition rate; 11 to 30%) and 2 (Growth inhibition rate; 31 to 50%), respectively.
As for `O=S(=O)(Oc1cc(Cl)nnc1Oc1ccccc1C1CC1)C(F)(F)F` [Example 26], the “Herbicidal effects Cyperus serotinus” value in data set [1] (chemical dosage 10 g/a) and in data set [1] (chemical dosage 20 g/a) was 5 (Growth inhibition rate; 91 to 100%) each time. In addition, the “Herbicidal effects Scirpus joncoides” value in data set [2] (chemical dosage 10 g/a) and in data set [2] (chemical dosage 20 g/a) was 5 (Growth inhibition rate; 91 to 100%) in each case. For the same compound, the “Herbicidal effects Broad leaf” value in data set [3] (chemical dosage 10 g/a) and in data set [3] (chemical dosage 20 g/a) was 5 (Growth inhibition rate; 91 to 100%) in each case. The “Herbicidal effects Barnyard grass” value in data set [4] (chemical dosage 10 g/a) and in data set [4] (chemical dosage 20 g/a) was 4 (Growth inhibition rate; 71 to 90%) each time. In addition, the “Crop injury against transplanted rice” value in data set [5] (chemical dosage 10 g/a) and in data set [5] (chemical dosage 20 g/a) was 0 (Growth inhibition rate; 0 to 10%) throughout.
Regarding `Cc1ccc(S(=O)(=O)Oc2cc(Cl)nnc2Oc2ccccc2C2CC2)cc1` [Example 27], the “Herbicidal effects Cyperus serotinus” value in data set [1] (chemical dosage 10 g/a) and in data set [1] (chemical dosage 20 g/a) was 5 (Growth inhibition rate; 91 to 100%) in each case. Also, the results for the “Herbicidal effects Scirpus joncoides” value in data set [2] (chemical dosage 10 g/a) and in data set [2] (chemical dosage 20 g/a) were 4 (Growth inhibition rate; 71 to 90%) and 5 (Growth inhibition rate; 91 to 100%), respectively. Besides, the “Herbicidal effects Broad leaf” value in data set [3] (chemical dosage 10 g/a) and in data set [3] (chemical dosage 20 g/a) was 5 (Growth inhibition rate; 91 to 100%) throughout. The “Herbicidal effects Barnyard grass” value is listed as 2 (Growth inhibition rate; 31 to 50%) in data set [4] (chemical dosage 10 g/a) and 4 (Growth inhibition rate; 71 to 90%) in data set [4] (chemical dosage 20 g/a). Besides, the “Crop injury against transplanted rice” value in data set [5] (chemical dosage 10 g/a) and in data set [5] (chemical dosage 20 g/a) was 0 (Growth inhibition rate; 0 to 10%) each time.
As for `CC(C)c1cccc(C(C)C)c1Oc1nnc(Cl)cc1O` [Example 271], the “Herbicidal effects Cyperus serotinus” value is 3 (Growth inhibition rate; 51 to 70%) in data set [1] (chemical dosage 12.5 g/a) and 4 (Growth inhibition rate; 71 to 90%) in data set [1] (chemical dosage 25 g/a). Also, the “Herbicidal effects Scirpus joncoides” value is listed as 2 (Growth inhibition rate; 31 to 50%) in data set [2] (chemical dosage 12.5 g/a) and 4 (Growth inhibition rate; 71 to 90%) in data set [2] (chemical dosage 25 g/a). Besides, the “Herbicidal effects Broad leaf” value in data set [3] (chemical dosage 12.5 g/a) and in data set [3] (chemical dosage 25 g/a) was 5 (Growth inhibition rate; 91 to 100%) in each case. For the same compound, the “Herbicidal effects Barnyard grass” value in data set [4] (chemical dosage 12.5 g/a) is 1 (Growth inhibition rate; 11 to 30%); in data set [4] (chemical dosage 25 g/a), 2 (Growth inhibition rate; 31 to 50%).

The values are drawn from patent publication US7964531B2, “3-phenoxy-4-pyridazinol derivatives and herbicidal composition containing the same” (Mitsui Chemicals Agro, Inc., priority 2001, dated 2011).
